# Patent publication US20260014180A1, “BIOACTIVES AND THEIR USES” (AREPA IP LIMITED, priority 2022, published 2026)
# Columns and labels:
# [1] = in vivo; cited from earlier work
# MAO-B in platelets = molecular target: T1, MAO-B in platelets (Homo sapiens, UniProt P27338); settings: 100 mg dose, cited from earlier work
# T1 construct: host or cells: platelets
# T1 sequence (P27338 1-520): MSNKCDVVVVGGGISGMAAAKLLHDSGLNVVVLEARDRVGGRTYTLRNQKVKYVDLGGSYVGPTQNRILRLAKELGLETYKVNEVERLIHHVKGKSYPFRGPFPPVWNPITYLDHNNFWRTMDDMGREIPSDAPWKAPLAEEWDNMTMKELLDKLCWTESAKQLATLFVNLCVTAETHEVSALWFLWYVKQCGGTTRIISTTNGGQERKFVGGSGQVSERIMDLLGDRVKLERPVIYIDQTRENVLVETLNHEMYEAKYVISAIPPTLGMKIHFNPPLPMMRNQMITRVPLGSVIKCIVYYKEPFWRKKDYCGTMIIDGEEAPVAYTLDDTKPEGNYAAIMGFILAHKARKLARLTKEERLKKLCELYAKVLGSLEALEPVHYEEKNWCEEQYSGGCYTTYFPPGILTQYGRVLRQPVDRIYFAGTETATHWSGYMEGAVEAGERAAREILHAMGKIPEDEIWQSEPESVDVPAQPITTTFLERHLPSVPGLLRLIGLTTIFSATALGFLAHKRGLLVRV
# MAO = settings: cited from earlier work
# [2] = human, in vivo
# Description: Subjective feeling questionnaires and venous blood samples were collected at various timepoints over 8 h. […] Participants and trial coordinators were masked as to which intervention drink participants consumed. Before each trial day, participants excluded foods and supplements high in polyphenol compounds from their diet, for 24 h. They fasted for at least 10 h before consuming an Almond with Vanilla One Square Meal Bar® (Cookie Time Ltd) for breakfast, 2 h before the start of the trial. Participants arrived at the PFR Clinical Facility, where they were made comfortable. After 5 min at rest, they completed visual analogue scale (VAS) subjective feelings questionnaires and then donated a venous blood sample. After which, they were served their intervention beverage and were instructed to consume it as quickly as possible. […]
# The plasma samples (350 μL) were spiked with malvidin 3-O-galactoside and further acidified with phosphoric acid prior to clean up on a SOLAμ™ Solid Phase Extraction plate. […] Quantifications of individual and total anthocyanins were performed using the internal standard ratio method using MultiQuant software, and all results are reported as cyanidin 3-O-glucoside equivalents. Quantification of sarmentosin was performed using an external reference standard supplied by Stephen Bloor (Callaghan Institute).
# MAO-B = molecular target: T2, MAO-B (Sus scrofa, UniProt Q6PLK3); experiment: S9 liver fraction kynuramine/4HQ LCMS assay, dilution series (Examples 5 and 6); format: biochemical; settings: read-out: 50% inhibition concentration (equivalent); porcine S9 fraction, kynuramine, 1 hr 37 C
# T2 sequence (Q6PLK3 2-520): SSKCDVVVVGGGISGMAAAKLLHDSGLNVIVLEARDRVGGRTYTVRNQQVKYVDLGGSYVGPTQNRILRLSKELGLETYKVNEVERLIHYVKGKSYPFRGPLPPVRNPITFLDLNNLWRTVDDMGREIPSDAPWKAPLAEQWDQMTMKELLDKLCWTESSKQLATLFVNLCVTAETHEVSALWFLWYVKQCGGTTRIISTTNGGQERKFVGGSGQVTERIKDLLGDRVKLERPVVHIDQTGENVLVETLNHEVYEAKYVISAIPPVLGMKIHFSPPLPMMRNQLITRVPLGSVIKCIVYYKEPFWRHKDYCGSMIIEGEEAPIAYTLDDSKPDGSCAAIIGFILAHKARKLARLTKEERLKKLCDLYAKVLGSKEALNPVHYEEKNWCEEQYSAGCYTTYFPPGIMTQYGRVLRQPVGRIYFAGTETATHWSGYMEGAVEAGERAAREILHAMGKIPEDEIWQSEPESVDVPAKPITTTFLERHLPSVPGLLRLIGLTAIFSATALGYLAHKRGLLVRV
# Description: We used a porcine S9 liver microsome fraction as the source of the MAO-A and MAO-B enzymes.
# The S9 porcine fraction was mixed with a specific MAO substrate (kynuramine) and mixed with the test sample and buffer. After 1 hr at 37° C. the reaction was halted by cooling and addition of 2N NaOH and acetonitrile. The centrifuged sample was then analysed using LCMS and the level of 4-quinolol (4HQ) product measured.
# The S9 liver microsome fraction containing the crude enzyme mix was from a frozen bulk sample derived from porcine liver.
# Samples were prepared in a 6-well plate (deep well format with 1.1 ml strip tubes). The assay was performed by diluting the crude S9 fraction with buffer (PBS, PH 7.4, diluted 1 in 5, 150 μl) and adding the test sample dissolved in buffer (75 ul). An aliquot of kynuramine was added (10 μl of 1 mg/ml) and the plate was placed in a 37 C water bath for 1 hr. The plate was cooled in ice water before addition of 20 μl 2N NaOH followed by 250 μl acetonitrile. The individual strip tubes were centrifuged, and samples taken from each for LCMS analysis.
# The LCMS analysis was performed using a Cyano HPLC column eluted with 0.1% formic in water and acetonitrile. The LC run was isocratic mode (40% Acetonitrile) and the relative levels of 4 hydroxy quinoline (4HQ) and kynuramine determined from peak areas. […] Kynuramine is converted to 4HQ by the MAO-B enzyme. […]
# MAO-A = molecular target: T3, MAO-A (Homo sapiens, UniProt P21397); settings: in vivo; cited from earlier work
# T3 construct: purchased Sigma-Aldrich MAK295/296
# T3 sequence (P21397 1-527): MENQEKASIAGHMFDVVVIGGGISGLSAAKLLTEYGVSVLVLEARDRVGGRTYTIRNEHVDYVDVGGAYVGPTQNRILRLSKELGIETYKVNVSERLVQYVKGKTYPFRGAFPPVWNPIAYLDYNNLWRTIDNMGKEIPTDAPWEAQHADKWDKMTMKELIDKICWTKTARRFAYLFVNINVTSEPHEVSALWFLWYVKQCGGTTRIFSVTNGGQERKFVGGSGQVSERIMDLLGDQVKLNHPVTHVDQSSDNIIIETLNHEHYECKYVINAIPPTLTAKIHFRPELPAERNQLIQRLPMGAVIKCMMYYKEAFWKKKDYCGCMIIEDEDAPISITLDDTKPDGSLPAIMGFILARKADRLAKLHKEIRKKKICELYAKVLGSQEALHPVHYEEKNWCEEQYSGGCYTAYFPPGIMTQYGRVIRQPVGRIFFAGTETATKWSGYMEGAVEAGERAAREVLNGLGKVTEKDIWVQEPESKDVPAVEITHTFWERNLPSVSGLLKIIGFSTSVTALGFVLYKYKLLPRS
smiles,measurement,setting,value
O=C(NCCN1CCOCC1)c1ccc(Cl)cc1 [Moclobemide],elimination half-life,[1],1 to 3 h
same,time to reach peak (plasma) concentrations,[1],approximately 1 hours
NCCNC(=O)c1ccc(Cl)cn1 [lazabemide],inhibition of MAO-B in platelets,MAO-B in platelets; 30 min post dose,> 90%
same,time at which maximal inhibition subsides,MAO-B in platelets; post dose,16 h
same,time of full restoration of enzyme activity,MAO-B in platelets; post dose,48 h
O=c1c(O)c(-c2ccc(O)c(O)c2)oc2cc(O)cc(O)c12 [quercetin],MAO inhibitory activity by HPLC method,MAO,not active
"N#C/C(=C\CO[C@@H]1O[C@H](CO)[C@@H](O)[C@H](O)[C@H]1O)CO [sarmentosin, 4-(beta-D-glucopyranosyloxy)-2-(hydroxymethyl-2-butenenitrile)]",time of peak concentrations of sarmentosin in plasma,[2],120 min
same,IC50,MAO-B,~1450 nM
Cc1cccc(N2CC(CO)OC2=O)c1 (stereo not drawn) [toloxatone],duration of MAO-A inhibition,MAO-A,only six hours
